Among the data in patent US12479840B2, “HMG-CoA reductase degradation inducing compound” (Uppthera, priority 2020, dated 2025) are DC50 values, retold here.

For this assay, the target named is T1, HMG-CoA reductase (Homo sapiens, UniProt P04035).
T1 construct: endogenous in cells; host or cells: HepG2 (Korea Cell Line Bank)
T1 sequence (P04035 1-888): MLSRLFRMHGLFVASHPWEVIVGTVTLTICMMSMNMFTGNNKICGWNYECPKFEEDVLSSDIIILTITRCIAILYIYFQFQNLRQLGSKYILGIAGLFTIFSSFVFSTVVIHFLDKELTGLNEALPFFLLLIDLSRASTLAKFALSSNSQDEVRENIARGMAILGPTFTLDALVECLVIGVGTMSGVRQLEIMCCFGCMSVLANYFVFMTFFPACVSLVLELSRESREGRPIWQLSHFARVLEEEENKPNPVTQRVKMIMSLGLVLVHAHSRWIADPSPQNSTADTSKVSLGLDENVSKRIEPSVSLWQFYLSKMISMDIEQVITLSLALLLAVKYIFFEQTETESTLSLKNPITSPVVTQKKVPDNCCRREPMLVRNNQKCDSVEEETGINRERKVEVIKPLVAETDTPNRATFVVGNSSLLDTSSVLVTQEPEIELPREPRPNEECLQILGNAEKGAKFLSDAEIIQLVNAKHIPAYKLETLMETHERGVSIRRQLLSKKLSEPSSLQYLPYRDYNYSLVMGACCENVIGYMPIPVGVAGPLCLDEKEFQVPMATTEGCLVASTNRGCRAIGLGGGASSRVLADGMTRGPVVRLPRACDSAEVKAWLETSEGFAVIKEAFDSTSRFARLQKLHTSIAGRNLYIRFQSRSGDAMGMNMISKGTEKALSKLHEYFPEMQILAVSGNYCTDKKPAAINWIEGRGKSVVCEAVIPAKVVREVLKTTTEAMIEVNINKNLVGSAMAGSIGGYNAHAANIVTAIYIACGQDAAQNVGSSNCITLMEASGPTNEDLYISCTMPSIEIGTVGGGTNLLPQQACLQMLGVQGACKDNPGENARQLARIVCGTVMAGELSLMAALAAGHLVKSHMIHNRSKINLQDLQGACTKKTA
Put plainly: HMG-CoA reductase (HMGCR) degradation in HepG2 cells by western blotting. In kind it is cell-based. As to conditions: treated for 18 hours, ratio of HMG-CoA reductase to GAPDH, read-out: DC50. Summed up: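 HepG2 cells (passage P105–P110) treated 18 hours with compounds in 10-point three-fold dilutions from 3 μM. RIPA lysates (15 μg protein, BCA-quantified) run on SDS-PAGE and immunoblotted for HMGCR (1:500) with GAPDH (1:20000) as loading control, primary antibodies 16 hours at 4° C.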

The term DC50 denotes the concentration at which degradation of the target reaches its halfway point. Consider `Cc1ncsc1-c1ccc(CNC(=O)[C@H]2C[C@H](O)CN2C(=O)[C@H](NC(=O)C2(F)CC2)C(C)(C)C)c(OCC(=O)N2CCC(CCCNC(=O)O[C@H]3C[C@@H](C)C=C4C=C[C@H](C)[C@H](CC[C@@H]5C[C@@H](O)CC(=O)O5)[C@H]43)CC2)c1` [Compound 168, (1S,3R,7S,8S,8aR)-8-(2-((2R,4R)-4-hydroxy-6-oxotetrahydro-2H-pyran-2-yl)ethyl)-3,7-dimethyl-1,2,3,7,8,8a-hexahydronaphthalen-1-yl (3-(1-(2-(2-(((2R,4S)-1-((R)-2-(1-fluorocyclopropane-1-carboxamido)-3,3-dimethylbutanoyl)-4-hydroxypyrrolidine-2-carboxamido)methyl)-5-(4-methylthiazol-5-yl)phenoxy)acetyl)piperidin-4-yl)propyl)carbamate], for which the DC50 was under 0.05 µM. Then `Cc1ncsc1-c1ccc(CNC(=O)[C@@H]2C[C@@H](O)CN2C(=O)[C@@H](NC(=O)C2(F)CC2)C(C)(C)C)c(OCCc2cn(CCCNC(=O)O[C@@H]3C[C@H](C)C=C4C=C[C@@H](C)[C@@H](CC[C@@H]5C[C@@H](O)CC(=O)O5)[C@@H]43)nn2)c1` [Compound 169, (1R,3S,7R,8R,8aS)-8-(2-((2R,4R)-4-hydroxy-6-oxotetrahydro-2H-pyran-2-yl)ethyl)-3,7-dimethyl-1,2,3,7,8,8a-hexahydronaphthalen-1-yl (3-(4-(2-(2-(((2S,4R)-1-((S)-2-(1-fluorocyclopropane-1-carboxamido)-3,3-dimethylbutanoyl)-4-hydroxypyrrolidine-2-carboxamido)methyl)-5-(4-methylthiazol-5-yl)phenoxy)ethyl)-1H-1,2,3-triazol-1-yl)propyl)carbamate], with under 0.05 µM.
